Data published in paper PMC10094418, “Butein Inhibits Cell Growth by Blocking the IL-6/IL-6Rα Interaction in Human Ovarian Cancer and by Regulation of the IL-6/STAT3/FoxO3a Pathway” (International Journal of Molecular Sciences, 2023).

Assays:
SKOV3 cells = assay: Cell viability by MTT assay, SKOV3; type: cell-based; details: Homo sapiens, SK-OV-3, 48 h
Description: A2780 and SKOV3 cell lines were purchased from the European Collection of Cell Cultures (ECACC, London, UK) and Korean Cell Line Bank (KCLB, Seoul, Republic of Korea) respectively. Each cell line was seeded in a 96-well plate at an appropriate cell number (3000 cells/100 μL in each well). After 24 h, butein was added to the plates at each of the following concentrations, 0, 3.125, 6.25, 12.5, 25, and 50 μM, in triplicate in the presence of serum medium. After 48 h, 100 μL of […] (Sigma-Aldrich, St. Louis, MO, USA) solubilizing solution was added to each well and incubated for 4 h. The solution was then aspirated, and 100 μL of DMSO was added for cell lysis. The spectrophotometric absorbance was measured at 540 nm. Half of the maximum inhibitory concentration (IC50) was determined using GraphPad Prism software (version 7.0).

[1] = test system: STAT3 phosphorylation in SKOV3 cells; assay: Western blotting of STAT3 phosphorylation, SKOV3; type: cell-based, human; details: relative to IL-6 treated cells
Description: (§1) After each drug treatment of the cells, the cells were dissolved in 100 μL of radioimmunoprecipitation assay (RIPA) buffer (Thermo Fisher Scientific Inc., Waltham, MA, USA) and centrifuged to separate the supernatant containing protein. Isolated protein concentrations were measured using the Pierce BCA Protein Assay Kit (Thermo Fisher Scientific Inc., Waltham, MA, USA). Aliquots of proteins quantified at […] were boiled at 100 °C in 5× sample buffer, separated on a 12% SDS-polyacrylamide gel and electrophoresed onto polyvinylidene difluoride (PDVF) membranes (Millipore, Billerica, MA, USA). The PDVF membranes were blocked for 1 h at 25 °C with 5% BSA in 1× tris buffered saline containing 0.05% Tween20 (TBST) (Sigma-Aldrich, St. Louis, MO, USA). The membrane was incubated in the primary antibody at 4 °C overnight. PDVF membranes were washed with 1× TBST and incubated with AffiniPure goat anti-rabbit IgG secondary antibody (Jackson Immunoresearch, West Grove, PA, USA) for 1 h at room temperature. After washing again with TBST buffer, enhanced signals were detected using the SuperSignal™ West Femto Maximum Sensitivity Substrate kit (cat.no. 34094, Thermo Scientific, Rockford, IL, USA). The blot was imaged using the ChemiDoc imaging system (Bio-Rad, Herles, CA, USA), and protein expression was quantified with the ImageJ software (v1.8.0).

IL-6/IL-6Rα interaction = target: T1, IL-6/IL-6Rα interaction (Homo sapiens, UniProt P05231); assay: ELISA of the IL-6/IL-6Rα interaction; type: binding; details: at 20 μM
T1 construct: purchased BioLegend (IL-6); Acro biosystems (IL-6Ra) 570806 (IL-6); ILR-H5259 (IL-6Ra)
T1 sequence (P05231 30-212): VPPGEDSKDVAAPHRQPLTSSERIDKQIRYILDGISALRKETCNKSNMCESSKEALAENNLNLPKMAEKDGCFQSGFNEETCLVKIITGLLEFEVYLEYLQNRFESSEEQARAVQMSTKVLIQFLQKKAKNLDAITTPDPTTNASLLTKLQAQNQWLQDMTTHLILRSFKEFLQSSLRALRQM
Description: An amount of 0.5 μg/mL rhIL-6 protein (Cat.no.570806, BioLegend) was coated onto 96-well ELISA plates at 4 °C overnight, and then the plates were washed with PBST (1 × PBS containing 0.05% Tween-20), followed by the addition of PBSA (1 × PBS containing 1% bovine serum albumin (BSA)) (Bovogen, East Keilor, Australia) for 1 h at room temperature. After blocking, the FDA-approved compounds (20 uM) (Cat.no. L-1300, Selleckchem, Houston, TX, USA) were incubated for 2 h at room temperature. After washing three times with PBST, 0.2 μg/mL recombinant IL-6Ra protein (Cat.no.ILR-H5259, Acro biosystems, Newark, DE, USA) was added to the plates, which were incubated for 1 h. After washing three times with PBST, HRP-conjugated goat anti-human IgG Ab (Cat.no. 10-035-098, Jackson Immno, Hatfield, West Grove, PA, USA) was added to the plates and incubated for 1 h. After washing three times with PBST, TMB solution (Cat.no.11684302001, Roche, Mannheim, Germany) was added to the plates and incubated for 15 min. Then, stop solution (2N HCl) was added to the plates. The absorbance was measured at 450 nm using the Epoch microplate spectrophotometer (BioTek instruments, Winooski, VT, USA).

[2] = test system: STAT3 phosphorylation in A2780 cells; assay: Western blotting of STAT3 phosphorylation, A2780; type: cell-based, human; details: relative to IL-6 treated cells
Description: as §1

## O=C(/C=C/c1ccc(O)c(O)c1)c1ccc(O)cc1O [butein]
SKOV3 cells
  IC50: 175 ± 61.9 µM
[1]
  Phosphorylation of STAT3, SKOV3: inhibited in a concentration-dependent manner
IL-6/IL-6Rα interaction
  Reduction of the interaction between IL-6 and IL-6Rα: 21.7%
[2]
  Phosphorylation of STAT3, A2780: inhibited in a concentration-dependent manner
